Data set [1] concerns Mab ATCC 19977. Nature of the data set: MIC testing against Mab ATCC 19977, single agent and combinations. The format is cell-based, Mycobacterium abscessus. The method, then:
MICs were determined in duplicate following Clinical Laboratory Standards Institute ([52]) guidelines using Middlebrook 7H9 broth supplemented with 10% (vol/vol) oleic acid-albumin-dextrose-catalase (OADC) and 0.05% (vol/vol) Tween 80, with an inoculum of 5 × 10⁵ CFU/mL. MIC testing of two C5α-substituted carbapenems was conducted both individually and in combination with cephalosporins (cefuroxime and ceftaroline), penicillins (amoxicillin), or BLIs (avibactam or durlobactam + sulbactam). Avibactam, durlobactam, cefuroxime, ceftaroline, and amoxicillin were fixed at concentrations of 4, 1, 2, 4, and 4 mg/L, respectively. […] The MIC was defined as the lowest antibiotic concentration that inhibited visible bacterial growth following 48 h of incubation at 30°C.

Data set [2] relates to Mab ATCC 19977. Nature of the data set: MIC testing with drugs pre-incubated in 7H9 broth (effect of drug instability). In kind it is cell-based, Mycobacterium abscessus. To be noted: for MIC: Mycobacteroides abscessus, ATCC19977. The method, then: MICs were determined in duplicate following Clinical Laboratory Standards Institute ([52]) guidelines using Middlebrook 7H9 broth supplemented with 10% (vol/vol) oleic acid-albumin-dextrose-catalase (OADC) and 0.05% (vol/vol) Tween 80, with an inoculum of 5 × 10⁵ CFU/mL. MIC testing of two C5α-substituted carbapenems was conducted both individually and in combination with cephalosporins (cefuroxime and ceftaroline), penicillins (amoxicillin), or BLIs (avibactam or durlobactam + sulbactam). Avibactam, durlobactam, cefuroxime, ceftaroline, and amoxicillin were fixed at concentrations of 4, 1, 2, 4, and 4 mg/L, respectively. Amoxicillin was combined with 4 mg/L avibactam, as it is highly susceptible to hydrolysis by BlaMab ([12], [15], [25]). The MIC was defined as the lowest antibiotic concentration that inhibited visible bacterial growth following 48 h of incubation at 30°C.

The nature of data set [3]: Thermal stability in 7H9 broth at 30°C. To be noted: for Degradation percentage: 24 h. Here is the method: The stability of the two compounds in 7H9 broth was assessed at 30°C at drug concentrations of 10, 50, and 100 mg/L, with each condition tested in triplicate. Absorbance at 240 nm was measured every 2 h over a 24 h period using a BioTek Synergy2 multimode reader, with data analyzed via Gen5 software to monitor degradation or changes in stability. To evaluate the impact of thermal instability, MIC tests were performed using Mab ATCC 19977. Compounds were tested at time points of 0 h (no incubation) and 6, 24, and 48 h of incubation at 30°C. Imipenem and meropenem, known to be thermally unstable β-lactams, were included as positive controls. The MIC results were recorded after 48 h of incubation. Detailed MIC testing protocols were identical to those described below.

A further data set concerns the target T1, PBP-lipo (Mycobacteroides abscessus, UniProt B1MDC3).
T1 construct: made in house; host or cells: Escherichia coli BL21 (DE3)
Nature of the data set: Apparent inhibition constant (nitrocefin, Dixon plot). The format is biochemical. Particulars: Ki,app. The method, then:
(§1) Steady-state kinetic studies with JDB/NA-1-157 and JDB/NA-1-208 were performed using purified LDTs and PBPs, including LDT1–5, PBP-B, PBP-lipo, and D,D-carboxypeptidase. The assays were conducted on a BioTek Synergy2 multimode reader equipped with Gen5 software. To determine the Michaelis constant (Km^NCF) for each LDT and PBP, a wide range of NCF concentrations was tested, while the enzyme concentrations were fixed. Absorbance changes at 482 nm were monitored over 10 min. Steady-state kinetic parameters (Vmax and Km) were derived by fitting the experimental data to the Henri–Michaelis–Menten equation using nonlinear least-squares regression in GraphPad Prism version 9. The reaction velocity (v) at a given substrate concentration ([S]) was calculated using equation 2: […]
(§2) The apparent inhibition constants (Ki,app) for JDB/NA-1-157 and JDB/NA-1-208 were determined under the following conditions: an NCF concentration of 5 × Km, fixed concentrations of LDT or PBP enzymes, and varying concentrations of JDB/NA-1-157 and JDB/NA-1-208. Absorbance changes at 482 nm were monitored over a 30 min period for each inhibitor concentration. The data were linearized using a Dixon plot, which involves plotting the reciprocal of the absorbance change (1/ΔA) against the concentrations of JDB/NA-1-157 or JDB/NA-1-208. Apparent Ki,app values were derived from the intersection points on the Dixon plot and were subsequently corrected for substrate concentration and enzyme affinity using equation 3:
(§3) (3) Ki,app=observed Ki,app/1+[NCF]/Km NCF.

The next data set deals with PBP B (Mycobacteroides abscessus, UniProt B1MP31). The description is as above. In kind it is biochemical. Particulars: read-out: Ki,app (converted). The method, then:
as §1, §2, §3

A further data set has as its target LDT5 (Mycobacteroides abscessus, UniProt B1MHQ4). The description is as above. The format is biochemical, Mycobacterium abscessus. Particulars: read-out: Ki,app. Here is the method:
as §1, §2, §3

The next data set concerns the target PonA2 (Mycobacteroides abscessus, UniProt B1MFV7). The description is as above. The format is biochemical, Mycobacterium abscessus. Particulars: Ki,app. The method, then: as §1, §2, §3
For data set [4], the system named is Mab strain ATCC 19977 and three clinical isolates (Mab122, Mab686, and UH01). Nature of the data set: Static concentration time-kill (SCTK) assay. The format is cell-based, Mycobacterium abscessus. Particulars: imipenem alone (Fig. S1). The method, then: SCTK studies were conducted over 5 days in Middlebrook 7H9 broth supplemented with 10% (vol/vol) OADC, 0.2% (vol/vol) glycerol, and 0.05% (vol/vol) Tween 80 in duplicate. The efficacy of JDB/NA-1-157 and JDB/NA-208 was evaluated using Mab strain ATCC 19977 and three clinical isolates (Mab122, Mab686, and UH01) at an initial inoculum of 10^5.5–10^6.3 CFU/mL. […] Bacterial killing was assessed across a wide range of concentrations for JDB/NA-1-157 and JDB/NA-1-208 individually (0.0625–64.0 mg/L).
For the combination study, the concentrations of JDB/NA-1-157 and JDB/NA-1-208 were selected based on MIC results and time-killing profiles of the single-drug study, while the concentrations of other β-lactams and BLIs were chosen based on clinically relevant levels, determined from the predicted average unbound steady-state concentrations (fCss,avg) in plasma at clinically relevant doses ([27]). The drug concentrations used were JDB/NA-1-157, 1 mg/L; JDB/NA-1-208, 8 mg/L; imipenem, 12 mg/L; ceftaroline, 8 mg/L; cefuroxime, 8 mg/L; amoxicillin, 2 mg/L; avibactam, 4 mg/L; durlobactam, 12 mg/L; amikacin, 12 mg/L; clarithromycin, 0.3 mg/L; and cefoxitin, 7 mg/L. The SOC regimen was included for comparison of efficacy. On day 3, the broth was replaced with fresh broth containing the corresponding drug concentrations. For viable cell counts, 100 µL of undiluted or appropriately diluted samples was subcultured on Middlebrook 7H10 agar plates supplemented with 1% (vol/vol) OADC, 0.2% glycerol, and 0.05% (vol/vol) Tween 80. All samples were washed twice with sterile 0.9% saline prior to serial dilution or plating.

The target in another data set is LDT1 (Mycobacteroides abscessus, UniProt B1MDC1). The data set can be described thus: Apparent inhibition constant (nitrocefin, Dixon plot). The format is biochemical, Mycobacterium abscessus. To be noted: Ki,app. The method, then: as §1, §2, §3
Sequence of LDT1 (B1MDC1 entry or part of it): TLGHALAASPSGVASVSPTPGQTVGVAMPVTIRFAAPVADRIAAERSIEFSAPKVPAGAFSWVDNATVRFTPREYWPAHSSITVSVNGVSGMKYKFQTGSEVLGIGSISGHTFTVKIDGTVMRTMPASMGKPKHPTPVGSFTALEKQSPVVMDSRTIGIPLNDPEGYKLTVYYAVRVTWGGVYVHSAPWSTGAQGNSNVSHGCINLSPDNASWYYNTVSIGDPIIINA
A further data set deals with LDT2 (Mycobacteroides abscessus, UniProt B1MMQ4). The description is as above. To be noted: Ki,app. In kind it is biochemical, Mycobacterium abscessus. Here is the method: as §1, §2, §3
Sequence of LDT2 (B1MMQ4 entry or part of it): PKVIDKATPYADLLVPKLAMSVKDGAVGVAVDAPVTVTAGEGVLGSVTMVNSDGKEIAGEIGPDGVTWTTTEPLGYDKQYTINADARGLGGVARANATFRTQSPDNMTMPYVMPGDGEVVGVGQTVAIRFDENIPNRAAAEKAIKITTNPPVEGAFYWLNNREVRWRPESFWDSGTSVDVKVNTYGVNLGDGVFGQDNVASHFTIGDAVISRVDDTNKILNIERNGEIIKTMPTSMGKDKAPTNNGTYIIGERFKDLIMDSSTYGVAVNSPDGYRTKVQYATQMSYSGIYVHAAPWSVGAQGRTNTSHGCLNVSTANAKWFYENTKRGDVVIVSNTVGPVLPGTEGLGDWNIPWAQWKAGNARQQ
Data set [5] deals with C[C@@H](O)[C@H]1C(=O)N2C(C(=O)O)=C(S[C@@H]3CN[C@H](C(=O)N(C)C)C3)C[C@]12C. Nature of the data set: Steady-state kinetics of hydrolysis by BlaMab. The format is biochemical, Mycobacterium abscessus. To be noted: other: best-fit value (95% confidence interval), MES buffer pH 6.4, room temperature.
Where [6] appears, read: Mycobacteroides abscessus, ATCC19977, 48 h, alone (single agent), read-out: MIC.
Setting [7] is: drug incubated 6 h in 7H9 broth at 30°C.
The mark [8] stands for this setting: drug incubated 24 h in 7H9 broth at 30°C.
Where [9] appears, read: drug incubated 48 h in 7H9 broth at 30°C.

Sequence of PBP B (B1MP31 entry or part of it): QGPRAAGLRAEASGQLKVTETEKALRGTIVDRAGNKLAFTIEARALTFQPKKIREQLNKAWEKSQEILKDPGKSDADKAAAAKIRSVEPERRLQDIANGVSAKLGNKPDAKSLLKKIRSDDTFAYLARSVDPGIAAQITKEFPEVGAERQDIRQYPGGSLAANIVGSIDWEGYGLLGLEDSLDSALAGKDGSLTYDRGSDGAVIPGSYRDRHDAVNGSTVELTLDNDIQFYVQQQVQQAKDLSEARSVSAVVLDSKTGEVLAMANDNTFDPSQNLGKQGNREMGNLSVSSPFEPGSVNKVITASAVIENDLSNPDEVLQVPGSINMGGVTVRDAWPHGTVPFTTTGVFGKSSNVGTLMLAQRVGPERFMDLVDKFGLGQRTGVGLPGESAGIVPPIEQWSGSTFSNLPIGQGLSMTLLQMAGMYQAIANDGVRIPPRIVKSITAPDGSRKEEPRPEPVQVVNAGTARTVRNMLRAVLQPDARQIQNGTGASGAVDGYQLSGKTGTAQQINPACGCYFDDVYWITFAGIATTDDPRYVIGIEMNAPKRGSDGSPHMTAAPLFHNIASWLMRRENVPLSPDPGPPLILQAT
Sequence of PonA2 (B1MFV7 entry or part of it): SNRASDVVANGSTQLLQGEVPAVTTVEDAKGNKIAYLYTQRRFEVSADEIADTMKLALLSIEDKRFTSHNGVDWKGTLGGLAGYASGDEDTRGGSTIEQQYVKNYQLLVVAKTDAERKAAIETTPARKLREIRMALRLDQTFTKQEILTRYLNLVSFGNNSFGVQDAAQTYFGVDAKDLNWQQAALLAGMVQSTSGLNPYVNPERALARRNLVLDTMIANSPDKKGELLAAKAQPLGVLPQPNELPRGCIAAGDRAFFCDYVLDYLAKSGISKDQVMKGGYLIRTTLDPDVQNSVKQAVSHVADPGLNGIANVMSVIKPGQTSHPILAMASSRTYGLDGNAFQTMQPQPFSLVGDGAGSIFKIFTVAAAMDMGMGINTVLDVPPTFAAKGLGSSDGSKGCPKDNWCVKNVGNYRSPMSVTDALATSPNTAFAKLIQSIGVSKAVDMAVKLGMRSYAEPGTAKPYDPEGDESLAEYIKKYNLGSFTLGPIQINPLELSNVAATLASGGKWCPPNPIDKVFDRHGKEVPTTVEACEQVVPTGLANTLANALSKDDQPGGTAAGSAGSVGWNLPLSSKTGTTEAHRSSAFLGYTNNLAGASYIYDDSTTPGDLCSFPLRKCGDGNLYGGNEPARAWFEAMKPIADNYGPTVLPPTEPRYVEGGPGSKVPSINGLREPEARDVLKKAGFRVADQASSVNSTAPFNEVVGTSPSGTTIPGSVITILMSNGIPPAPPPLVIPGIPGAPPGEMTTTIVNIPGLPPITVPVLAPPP
Sequence of LDT5 (B1MHQ4 entry or part of it): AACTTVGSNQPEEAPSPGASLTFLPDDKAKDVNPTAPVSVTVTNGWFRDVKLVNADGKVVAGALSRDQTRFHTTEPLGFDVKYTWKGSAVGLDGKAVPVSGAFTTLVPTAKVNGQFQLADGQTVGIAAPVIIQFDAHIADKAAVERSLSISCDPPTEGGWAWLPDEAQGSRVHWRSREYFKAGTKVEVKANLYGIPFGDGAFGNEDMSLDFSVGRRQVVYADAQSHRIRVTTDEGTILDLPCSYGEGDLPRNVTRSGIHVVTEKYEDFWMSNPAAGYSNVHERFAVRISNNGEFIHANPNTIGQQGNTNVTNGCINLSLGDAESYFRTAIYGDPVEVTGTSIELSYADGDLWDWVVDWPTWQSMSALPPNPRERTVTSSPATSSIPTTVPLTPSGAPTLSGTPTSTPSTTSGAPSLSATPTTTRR
T1 sequence (B1MDC3 entry or part of it): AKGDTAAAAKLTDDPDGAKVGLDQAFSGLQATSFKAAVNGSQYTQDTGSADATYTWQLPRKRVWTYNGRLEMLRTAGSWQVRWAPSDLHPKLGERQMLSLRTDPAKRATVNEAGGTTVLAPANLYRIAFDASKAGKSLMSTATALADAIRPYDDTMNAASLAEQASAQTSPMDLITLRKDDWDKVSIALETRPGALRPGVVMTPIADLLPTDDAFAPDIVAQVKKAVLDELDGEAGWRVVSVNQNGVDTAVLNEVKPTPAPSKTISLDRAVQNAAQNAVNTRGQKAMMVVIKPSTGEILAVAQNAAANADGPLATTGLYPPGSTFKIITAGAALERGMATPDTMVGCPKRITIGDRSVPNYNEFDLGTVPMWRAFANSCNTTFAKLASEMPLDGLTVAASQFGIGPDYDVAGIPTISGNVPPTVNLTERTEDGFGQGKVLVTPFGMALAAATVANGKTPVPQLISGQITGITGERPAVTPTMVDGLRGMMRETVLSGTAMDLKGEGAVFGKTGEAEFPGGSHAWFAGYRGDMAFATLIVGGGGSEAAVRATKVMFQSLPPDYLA

As usually defined, the MIC is the smallest concentration in the dilution series that meets the test's criterion for growth inhibition. As for `CC1(C)S[C@@H]2[C@H](NC(=O)[C@H](N)c3ccc(O)cc3)C(=O)N2[C@H]1C(=O)O` [AMX, amoxicillin, reference compound], the MIC stood at 128 mg/L in the data set on Mab ATCC 19977 [1] (setting [6]) and 32 mg/L in the data set on Mab ATCC 19977 [1] (no carbapenem, with AVI).
As to `NC(=O)[C@@H]1CC[C@@H]2CN1C(=O)N2OS(=O)(=O)O` [AVI, avibactam, reference compound], the MIC with Mab ATCC 19977 [1] (setting [6]) was more than 128 mg/L.
On to `CCO/N=C(\C(=O)N[C@@H]1C(=O)N2C(C(=O)[O-])=C(Sc3nc(-c4cc[n+](C)cc4)cs3)CS[C@H]12)c1nsc(N)n1` [CFT, ceftaroline, reference compound], for which, in the data set with Mab ATCC 19977 [1] (setting [6]), the MIC amounted to 16 mg/L.
In the case of `CO/N=C(\C(=O)N[C@@H]1C(=O)N2C(C(=O)O)=C(COC(N)=O)CS[C@H]12)c1ccco1` [CXM, cefuroxime, reference compound], in the data set on Mab ATCC 19977 [1] (setting [6]), the minimum inhibitory concentration (MIC) amounted to 4 mg/L.
Still for that read-out and setting: the result for `CC1=C[C@@H]2CN(C(=O)N2OS(=O)(=O)O)[C@@H]1C(N)=O` [DUR, durlobactam, reference compound] reads 8 mg/L.
As a reminder, the half-life is the time needed for the level to fall by half in the phase considered. Turning to `C[C@@H](O)[C@H]1C(=O)N2C(C(=O)O)=C(SCCN=CN)C[C@H]12` [IPM, imipenem], the minimum inhibitory concentration (MIC) is 1 mg/L in the data set on Mab ATCC 19977 [2] (setting [7]), 32 mg/L in the data set on Mab ATCC 19977 [2] (setting [8]), more than 64 mg/L in the data set with Mab ATCC 19977 [2] (setting [9]) and 1 mg/L in the data set with Mab ATCC 19977 [2] (no incubation of drug). Moreover, the “MIC fold increase after 24 h incubation” value with Mab ATCC 19977 [2] (drug incubated 24 h) stood at 32 fold. Besides, in the data set on Mab ATCC 19977 [2] (drug incubated 48 h), the “MIC fold increase after 48 h incubation” value is on record as more than 64 fold. Further, the “additional degradation by 24 h” value in [3] is “approximately 25%”. Moreover, the “degradation within the first 6 h” value in [3] is given as “approximately 25%”. Besides, the half-life in data set [3] (7H9 broth) is 10 h. For the same compound, the Degradation percentage in data set [3] (10 mg/L) came out at 67.8%; in [3] (50 mg/L), 51.4%; in data set [3] (100 mg/L), 49.3%. The Ki is 1.84 µM at PBP-lipo, 1.47 µM on PBP B, 100 µM at LDT5 and 3.14 µM on PonA2. In addition, the “log10 reduction in bacterial load” value in data set [4] is approximately 1.5 log10.
On to `C[C@@H](O)[C@H]1C(=O)N2C(C(=O)O)=C(S[C@@H]3CN[C@H](C(=O)N(C)C)C3)[C@H](C)[C@H]12` [MEM, meropenem], for which the MIC in the data set on Mab ATCC 19977 [2] (setting [7]) turned out to be 4 mg/L; in the data set on Mab ATCC 19977 [2] (setting [8]), 16 mg/L; in the data set on Mab ATCC 19977 [2] (setting [9]), 16 mg/L; in the data set with Mab ATCC 19977 [2] (no incubation of drug), 4 mg/L. Besides, the “MIC rise after 24 and 48 h incubation vs nonincubated” value in the data set with Mab ATCC 19977 [2] (drug incubated 24 and 48 h) is “fourfold”. Also, the figures for the Degradation percentage in data set [3] (10 mg/L), in [3] (50 mg/L) and in data set [3] (100 mg/L) were 11.7%, 15.8% and 16.1%, respectively. Further, the Ki on PBP B is 0.965 µM; at LDT1, 0.206 µM; on LDT2, 0.0313 µM; at PonA2, 0.143 µM.
What is called kcat is the maximal rate divided by the concentration of active sites. As usually defined, the kcat/Km is the turnover number divided by the Michaelis constant. For “BlaMab (Mycobacteroides abscessus ATCC 19977)”, in [5], the Km is on record as 9.054 (3.677–17.50) µM, the catalytic constant (kcat) was determined as 0.03 s⁻¹ and the specificity constant (kcat/Km) was determined as 3000 M⁻¹ s⁻¹.

For the origin of these results see publication PMC12326981, “Novel C5α-substituted carbapenems enhance Mycobacterium abscessus killing via selective target binding and reduced hydrolysis by BlaMab” (Antimicrobial Agents and Chemotherapy, 2025).
